From US20120029054A1, “RNA Interference Mediated Inhibition of GATA Binding Protein 3 (GATA3) Gene Expression Using Short Intefering Nucleic Acid (siNA)” (Merck Sharp & Dohme Corp., priority 2009, published 2012)

Legend:
Type in all cases: cell-based
GATA3 mRNA [1] = experiment: GATA3 mRNA knock-down (Taqman qRT-PCR) after RNAiMax transfection of mouse RAG cells; conditions: 10 nM siNA, 24 hrs, average of 2 experiments
Outline: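 Murine RAG cells, 5000/well, transfected 24 h after plating with siNA (10 nM final) complexed with RNAiMax, harvested after 24 h. GATA3 mRNA quantified by TaqMan qRT-PCR with GAPDH reference; % knock-down by comparative Ct (2^−ΔΔCt) versus non-targeting control siNA.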

GATA3 mRNA [2] = experiment: GATA3 mRNA knock-down (Taqman qRT-PCR) after RNAiMax transfection of human MCF7 cells; screen and IC50 dose response; conditions: for % KD Human: 10 nM siNA, 24 hrs; for % KD GATA3 mRNA at 10 nM: Table 4, MCF7 cells; for % KD GATA3 10 nM: Table 5, MCF7 cells
Outline: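 MCF7 cells (5000/well, 24 h) transfected with siNA–RNAiMax complexes at 10 nM final siNA for 24 h without media change. GATA3 mRNA measured by TaqMan qRT-PCR, alongside β-actin and GAPDH probes. % knock-down by comparative Ct (2^−ΔΔCt) relative to non-targeting control siNA.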

human GAPDH mRNA = experiment: GAPDH specificity screen in human MCF7 cells (β-Actin normalised qRT-PCR); conditions: normalised to β-Actin, three experiments, mean ± S.D.
Method: A series of probes and primers were used to detect the various mRNA transcripts of the genes of β-Actin (human cell line only), and of GATA3 and GAPDH in mouse and human cell lines. All Taqman probes and primers for the experiments here-in described were supplied as pre-validated sets by Applied Biosystems, Inc. (see Table 2).
The assays were performed on an ABI 7900 instrument, according to the manufacturer's instructions. A TaqMan Gene Expression Master Mix (provided in the Cells-to-CT™, Applied Biosystems, Cat #4399002) was used. The PCR reactions were carried out at 50° C. for 2 min, 95° C. for 20 min followed by 40 cycles at 95° C. for 15 secs and 60° C. for 1 min.
The expression level of the gene of interest and % knock-down was calculated using Comparative Ct method: […]
These same three siNAs were tested for specificity in the human MCF7 cell line at 10 nM concentration to determine the effect of the GATA3 siNAs on the mRNA transcript of human GAPDH. In this assay, the samples from the primary screen, discussed above, O-Actin, a ubiquitously expressed ‘house-keeping’ gene, served as an endogenous control for normalization of the data.

[3] = mean ± S.D., * Hs00231122_m1 Taqman Assay
[4] = mean ± S.D., ** Hs00922328_m1 Taqman Assay

In the case of “30263-DC: GATA3 siNA duplex, site 817: sense B cGccucuGcuucAuGGAuc TTB (SEQ 79), antisense GAUccAuGAAGcAGAGGcGUU (SEQ 80) (sense CGCCUCUGCUUCAUGGAUCTT; antisense GAUCCAUGAAGCAGAGGCGUU; chemistry not fully specified)”, the “% KD Mouse” value (GATA3 mRNA [1]) is reported as 9 ± 13%, the “% KD Human” value (GATA3 mRNA [2]; MCF7 cells, * Hs00231122_m1 Taqman Assay) is reported as 74 ± 5* % and the “% KD Human” value (GATA3 mRNA [2]; MCF7 cells, ** Hs00922328_m1 Taqman Assay) is reported as 60 ± 10** %. The IC50 (GATA3 mRNA [2]; MCF7 cells, mean ± S.D.) was 104 ± 41 pM, the “% KD GATA3 mRNA at 10 nM” value (GATA3 mRNA [2]; [3]) was 74 ± 5* % and the “% KD GATA3 mRNA at 10 nM” value (GATA3 mRNA [2]; [4]) was 60 ± 10** %. The “% KD GATA3 10 nM” value (GATA3 mRNA [2]; [3]) was 74 ± 5* %, the “% KD GATA3 10 nM” value (GATA3 mRNA [2]; [4]) was 60 ± 10** % and the “% KD GAPDH 10 nM” value (human GAPDH mRNA) was 11 ± 4%.
